Results as given in patent US11142504B2, “Substituted heterocycles as c-MYC targeting agents” (Northwestern University, priority 2016, dated 2021).

How the values were obtained:
[1] = tested on: MYC WT and KO fibroblasts; assay: Growth inhibition of wild type and MYC knockout rat fibroblasts; format: cell-based
Excerpt: We tested the top 13 active compounds in the first screen assay. […] More than half of the tested compounds show better growth inhibitory effect on MYC WT compared to MYC KO cells.

MYC/Max binding to DNA = MYC/Max binding to DNA (Homo sapiens, UniProt P01106); assay: Electrophoretic mobility shift assay (EMSA)
Protocol: We also tested our best hit compound Min9 (NUCC-0176234) and newly synthesized analogs for effects of these compounds on MYC/Max binding to DNA in electrophoretic mobility shift assays (EMSAs). (See FIG. 5a and FIG. 5b). We expected the active compounds to impair MYC/Max binding to DNA. Several structural analogs of Min9 were tested over multiple doses for inhibiting MYC-DNA binding and we observed a dose-dependent inhibition. (See FIG. 5c).

[2] = tested on: cMYC wild-type (WT) and cMYC KO line; assay: Cell viability assay, cMYC wild-type line vs cMYC KO line; format: cell-based
Protocol: Min9 (NUCC-0176234) was also tested in a cell viability assay against a cMYC wild-type (WT) and a cMYC KO line.

MycCap cells [3] = assay: Cell viability of MycCap cells; format: cell-based; details: Mus musculus, Myc-CaP
PC12 cells = assay: Cell viability of PC12 cells; format: cell-based; details: for IC50: Rattus norvegicus, PC-12, Cell viability of PC12 cells
Protocol: (§1) PC3 prostate cancer cell line with high Myc level and PC12 pheochromocytoma tumor cell line with non functional Max protein, which is not dependent on Myc-Max complex, were phased from ATCC. Cells were plated in 96 well plate at 1000 cells per well, and Myc inhibitor 361 at various concentrations was added to the cells next day. After 3 days of treatment, fresh medium with 361 were added again, and cell viability was measured by MTS assay at day 5 after the treatment. (See FIG. 11).

[4] = Stability in mouse liver microsomes; format: in vitro ADME; details: % remaining of compound after 60 min treatment with mouse liver microsomes
Protocol: (§2) In vitro metabolism of NUCC-176242 and NUCC-176248 were tested using mouse liver microsomes and a mouse S9 fraction. (See FIG. 9).

[5] = In vitro metabolism in mouse S9 fraction; format: in vitro ADME
Protocol: as §2

MV411 cells = assay: AML xenograft model, combination with Ara-C; format: in vivo, CB17 SCID mice; details: AML mice xenograft
Protocol: CB17 SCID mice were inoculated with MV411 cells at the density of 5×10^6 suspended in PBS and matrigel (1:1). The mice were randomized based on tumor volume into 6 different groups after the tumor reached ˜200 to 500 mm^3. The mice were treated either with vehicle, NU031, NU975 alone or in combination with cytarabine (Ara-C). […] (See FIG. 17).

[6] = tested on: MYC transcriptional activity; assay: MYC E-Box luciferase reporter assay; format: cell-based; details: MycCap Ebox-luc, 4 hours of treatment
Protocol: To test the compounds, we evaluated the in silico hits in a MYC E-Box luciferase reporter assay to measure the effects of these compounds (referred to as Min-1 to Min-32) on MYC transcriptional activity. […] (See FIG. 2).
MycCap cells stably expressing luciferase with CMV promoter (MycCap-luc) or c-Myc E-box-luciferase reporter (MycCap Ebox-luc) were plated at 10000 cells per well in 96 well white-wall plate. Serial dilutions of 361 were treated next day. At 4 hours of treatment, luminescence signal was determined immediately after adding 150 μg/ml of Luciferin to the well. (See FIG. 12).

[7] = tested on: PC3 prostate cancer cell line; assay: Proliferation assay (MTS), PC3 cells; format: cell-based; details: MTS at day 5
Protocol: as §1

MycCap cells [8] = assay: MycCap FVB allograft model; format: in vivo, FVB mice
Protocol: FVB mice were inoculated with 1×10^6 of MycCap cells in 100 ul of matrigel subcutaneously on both flanks of the mice. When tumor size reached average size of 150 mm^3, mice were randomized based on tumor volume to 2 groups. Mice were administered with 50 mg/kg of 361 or vehicle (Veh) twice daily intra-peritoneally for two days. The treatment was suspended for 10 day, and initiated the treatment with a lower dose […] daily for another 9 days. Tumor size was measured twice a week during the experiment. (See FIG. 15).
MycCap FVB allograft model was treated with 361 (50 mg/kg) for two days, following by two days of anti-PD-1 antibody (100 ug/day), and kept this 4-day treatment cycle for 4 cycles. (See FIG. 16).

Chain of MYC/Max binding to DNA (P01106 whole entry, species assumed): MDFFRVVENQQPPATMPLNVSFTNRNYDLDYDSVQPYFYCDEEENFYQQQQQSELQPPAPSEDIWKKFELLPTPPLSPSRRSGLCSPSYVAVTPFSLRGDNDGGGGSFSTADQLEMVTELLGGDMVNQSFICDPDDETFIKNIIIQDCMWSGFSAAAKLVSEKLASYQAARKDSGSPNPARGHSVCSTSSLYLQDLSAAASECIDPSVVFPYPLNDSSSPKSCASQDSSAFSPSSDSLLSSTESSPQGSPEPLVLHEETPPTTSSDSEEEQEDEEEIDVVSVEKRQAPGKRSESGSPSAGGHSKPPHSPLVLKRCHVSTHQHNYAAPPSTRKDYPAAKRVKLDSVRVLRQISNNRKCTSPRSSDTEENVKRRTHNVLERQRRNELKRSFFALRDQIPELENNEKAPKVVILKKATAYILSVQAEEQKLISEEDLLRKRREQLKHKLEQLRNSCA

Row | Compound | IC50 (MycCap cells [3]) [µM] | IC50 (PC12 cells) [µM] | IC50 (MYC/Max binding to DNA) [µM] | MLM % at 60 min [4] [%] | other results
1 | CCc1ccc(Oc2c(-c3ccc(OCc4ccncc4)cc3O)n[nH]c2C(F)(F)F)cc1 [NUCC-0176250] | – | – | – | – | selectivity of growth inhibition, MYC WT vs MYC KO cells [1]: great selectivity
2 | CCc1ccc(Oc2c[nH]nc2-c2ccc(OCc3cnn(-c4ccccc4)c3)cc2O)cc1 [NUCC-0176234] | – | – | – | – | inhibition of MYC/Max binding to DNA (in words) (MYC/Max binding to DNA): prevent c-MYC/DNA binding; cell viability, WT line vs KO cells [2]: reduces cell viability much more in the WT line than the KO cells
3 | CCc1ccc(Oc2c(-c3ccc(OCc4ccc(Cl)cc4)cc3O)nn(C)c2C(F)(F)F)cc1 [NUCC-0176248] | 3.4 | 7.8 | – | – | selectivity of growth inhibition, MYC WT vs MYC KO cells [1]: high specificity
4 | Oc1c(-c2cc(C(F)(F)F)[nH]n2)ccc(OCc2ccc(Cl)cc2)c1-c1ccccc1Cl [NUCC-0196363] | 4 | – | 61.8 | 88.6 | –
5 | Oc1cc(OCc2ccc(Cl)cc2)ccc1-c1n[nH]c(C(F)(F)F)c1Oc1ccccc1Cl [NUCC-0196342] | 3.5 | – | 64.4 | 87.4 | –
6 | Cn1nc(C(F)(F)F)cc1-c1ccc(OCc2ccc(Cl)cc2)c(-c2cc(C(F)(F)F)cc(C(F)(F)F)c2)c1O [NUCC-0196361] | 3.8 | 30.7 | 63 | 72.9 | –
7 | COc1cccc(-c2c(-c3ccc(OCc4ccc(Cl)cc4)cc3O)n[nH]c2C(F)(F)F)c1 [NUCC-0198309] | 4 | – | 61.2 | 74 | –
8 | CCc1ccc(Oc2c(-c3ccc(OCc4ccc(Cl)cc4)cc3O)n[nH]c2C(F)(F)F)cc1 [NUCC-0176242] | 3.1 | 9.8 | – | – | in vitro metabolism by mouse S9 fraction [5]: significantly metabolism by the mouse S9 fraction
9 | Cn1nc(C(F)(F)F)cc1-c1ccc(OCc2ccc(Cl)cc2)c(-c2ccc(Cl)c(C(F)(F)F)c2)c1O [NU975] | – | – | – | – | anti-tumor effect in combination with Ara-C (MV411 cells): significant difference compared to control group
10 | Cn1nc(C(F)(F)F)cc1-c1ccc(OCc2ccc(Cl)cc2)c(-c2cc(C(F)(F)F)cc(C(F)(F)F)c2)c1O [compound 361] | – | – | – | – | proliferation of Myc independent cell line PC12 (PC12 cells; MTS at day 5): not; c-Myc transcription activity [6]: inhibits c-Myc transcription activity as an early event before affecting cell viability; proliferation of Myc dependent cell line PC3 [7]: specifically inhibits proliferation; tumor progression, combination with immunotherapy (MycCap cells [8]; 361 50 mg/kg with anti-PD-1 antibody, 4-day cycles): significantly blocks tumor progression; tumor volume (MycCap cells [8]; mouse prostate cancer allograft, intra-peritoneally): reduces tumor volume
11 | Cn1nc(C(F)(F)F)cc1-c1ccc(OCc2ccc(Cl)cc2)c(-c2ccc(Cl)c(C(F)(F)F)c2)c1O [NUCC-0200975] | 6.1 | 38.4 | – | – | anti-tumor effect in combination with Ara-C (MV411 cells; listed as 975): significant synergic anti-tumor effect with Ara-C
12 | CCCCOc1ccc(-c2cc(C(F)(F)F)n[nH]2)c(O)c1-c1cc(C(F)(F)F)cc(C(F)(F)F)c1 [NU031] | – | – | – | – | anti-tumor effect in combination with Ara-C (MV411 cells): significant difference compared to control group
